Reference: patent publication US8609833B2, “Purine derivatives as adenosine A1 receptor agonists and methods of use thereof” (Inotek Pharmaceuticals Corporation, priority 2004, dated 2013)

Key:
[1] = target: human recombinant A1 adenosine receptor (Homo sapiens (Human), UniProt P30542); assay: Adenosine A1 receptor binding, displacement of [3H]CCPA; conditions: for selectivity for the adenosine A1 receptor: versus human A2A and A3 receptors, Table 1; for Ki: displacement of specific [3H]CCPA binding, CHO cells, geometric mean
human recombinant A1 adenosine receptor, sequence (P30542 whole entry): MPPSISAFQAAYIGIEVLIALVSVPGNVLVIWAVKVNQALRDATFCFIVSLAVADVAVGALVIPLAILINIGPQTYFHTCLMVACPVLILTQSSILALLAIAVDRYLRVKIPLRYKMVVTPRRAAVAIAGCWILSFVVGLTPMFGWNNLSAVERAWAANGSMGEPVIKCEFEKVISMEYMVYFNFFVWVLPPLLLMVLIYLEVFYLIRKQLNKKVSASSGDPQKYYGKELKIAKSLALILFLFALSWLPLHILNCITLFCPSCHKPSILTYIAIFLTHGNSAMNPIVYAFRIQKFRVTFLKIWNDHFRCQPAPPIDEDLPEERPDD
Protocol: (§1) Membranes for radioligand binding experiments were prepared from fresh or frozen cells as described in Klotz et al., Naunyn-Schmiedeberg's Arch. […] The cell suspension was then homogenized in ice-cold hypotonic buffer (5 mM Tris/HCl, 2 mM EDTA, pH 7.4) and the homogenate was spun for 10 minutes (4° C.) at 1,000 g.
The affinities of selected Purine Derivatives for the adenosine A1 receptor were determined by measuring the displacement of specific [^3H]
(§2) Nonspecific binding was determined in the presence of 100 μM R-PIA and 1 mM theophylline, respectively. For details see Klotz et al., Naunyn-Schmiedeberg's Arch.

[2] = target: human recombinant A2A adenosine receptor (Homo sapiens (Human), UniProt P29274); assay: Adenosine A2A receptor binding, displacement of [3H]NECA; conditions: displacement of specific [3H]NECA binding, CHO cells; geometric mean
human recombinant A2A adenosine receptor, sequence (P29274 whole entry): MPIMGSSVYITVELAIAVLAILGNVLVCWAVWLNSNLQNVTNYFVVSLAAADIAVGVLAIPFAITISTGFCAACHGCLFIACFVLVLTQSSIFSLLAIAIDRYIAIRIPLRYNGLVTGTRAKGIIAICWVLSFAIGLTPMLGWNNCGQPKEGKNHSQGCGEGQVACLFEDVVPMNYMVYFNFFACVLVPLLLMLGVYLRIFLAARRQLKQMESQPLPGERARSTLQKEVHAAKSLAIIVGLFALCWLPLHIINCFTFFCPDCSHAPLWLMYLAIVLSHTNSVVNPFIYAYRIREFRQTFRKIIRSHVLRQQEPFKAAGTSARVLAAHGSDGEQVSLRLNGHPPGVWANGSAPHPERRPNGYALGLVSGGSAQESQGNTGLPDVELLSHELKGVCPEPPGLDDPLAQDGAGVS
Protocol: as §1, §2

[3] = target: human recombinant A3 adenosine receptor (Homo sapiens (Human), UniProt P0DMS8); assay: Adenosine A3 receptor binding, displacement of [3H]NECA; conditions: displacement of specific [3H]NECA binding, HEK cells; geometric mean
human recombinant A3 adenosine receptor, sequence (P0DMS8 whole entry): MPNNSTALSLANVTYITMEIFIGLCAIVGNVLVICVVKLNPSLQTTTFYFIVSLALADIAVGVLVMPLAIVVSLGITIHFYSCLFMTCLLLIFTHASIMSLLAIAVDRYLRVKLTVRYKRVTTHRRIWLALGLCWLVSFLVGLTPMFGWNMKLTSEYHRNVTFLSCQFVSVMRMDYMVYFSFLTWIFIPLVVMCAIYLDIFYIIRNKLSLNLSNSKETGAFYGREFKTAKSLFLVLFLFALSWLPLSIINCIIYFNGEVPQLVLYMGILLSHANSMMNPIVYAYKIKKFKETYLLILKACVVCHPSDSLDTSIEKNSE
Protocol: as §1, §2

male BALB/c mice [4] = assay: Lipopolysaccharide-induced mortality, survival study; type: in vivo, mouse; conditions: 0.03 mg/kg orally 30 min before LPS 55 mg/kg i.p.; followed over 72 h
Protocol: (§3) Male BALB/c mice (6-8 weeks of age) were used in studies investigating lipopolysaccharide-induced cytokine production and survival. […] Serum was diluted 1:5 prior to being assayed for cytokines using species-specific ELISA kits (R & D Systems) for the chemokine MIP-1α and the cytokine TNF-α levels, which were expressed as pg/mL. […] The survival of the mice was followed over 72 h and expressed as a percentage of surviving mice at each time point. […] N=12-14 per group.

male BALB/c mice [5] = assay: Lipopolysaccharide-induced cytokine production (septic shock model); type: in vivo, mouse; conditions: 0.03 mg/kg orally 30 min before LPS 1 mg/kg i.p.; measured 90 min after LPS
Protocol: as §3

male mice [6] = assay: Acute pain model, tail flick assay; type: in vivo, mouse; conditions: 3 mg/kg i.p.
Protocol: The analgesic effects in mice was measured using an IITC model 33 tail-flick analgesia meter (IITC Inc., Woodland Hills, Calif.) at 0 minutes (baseline control), 5 minutes, 15 minutes, 30 minutes and 60 minutes (in some cases also 90 and 120 minutes) post-treatment. compound or vehicle treatment. Average recoding value of two readings was used for each time point. A baseline for every mouse between 2-4 seconds of latency and a 10-second cut-off time was set for the maximum possible effect of analgesia (% MPE). % MPE was calculated using the following formula: % MPE=[(post-drug value−baseline)/(cut-off time−baseline)]×100.

adult male Wistar rats = assay: Effect on heart rate in anesthetized rats; type: in vivo, rat
From the text: Adult male Wistar rats (each weighing from about 350 g to about 400 g) were anesthetized as in Example 19, then prepared for monitoring of blood pressure and heart rate.

[7] = test system: isolated perfused rat hearts; assay: Ischemia-induced arrhythmias in isolated perfused rat hearts (LAD ligation)
Protocol: Male Sprague-Dawley rats (having a body weight of 250 to 300 g) were heparinized using sodium heparin (1,000 U/kg i.p.), followed 10 minutes later by introduction of anesthesia via intraperitoneal administration of sodium pentobarbital (40 mg/kg). Once the animal was anesthetized, the thorax was opened, and the heart was rapidly removed and perfused through the ascending aorta using Krebs-Ringer buffer consisting of NaCl (118 mmol/liter), KCl (4.75 mmol/liter), KH2PO4 (1.18 mmol/liter), MgSO4 (1.18 mmol/liter), CaCl2 (2.5 mmol/liter), NaHCO3 (25 mmol/liter), and glucose (11 mmol/liter). A mixture of 95% O2 and 5% CO2 at 37° C. was bubbled through the perfusate. The heart was initially perfused at a constant pressure of 70 mm Hg. About 10 min after the constant pressure perfusion, perfusion was switched to constant flow perfusion achieved using a microtube pump. The perfusion pressure was maintained at the same level of constant pressure perfusion by adjusting flow rate. Once the flow rate was determined, it was maintained throughout the experiment. The hearts were stimulated by rectangular pulses at a rate of 5 Hz and 2-millisecond duration and twice the diastolic threshold, delivered from a stimulus isolation unit (ADInstruments Ltd, Australia). Rat hearts were perfused at constant pressure of 70 mmHg without pacing as described above. Bipolar epicardial electrocardiogram (ECG) was recorded by placing two electrodes on the surface of right appendage and apex. A stainless steel cannula was used as indifferent electrode. The ECG and heart rate were continuously monitored and data were recorded using a PowerLab data acquisition system (ADInstruments Ltd, Australia) in conjunction with a Macintosh computer, and analyzed using Chart.3 computer package. After a 20-minute equilibration period, regional ischemia was induced by ligation of the left anterior descending (LAD) coronary artery, and the ligature was released 30 minutes after occlusion. […] The incidences of ventricular tachycardia (VT) were almost same in control non-treated (12/12) and in treated hearts (20/22). […]

male Wistar rats = assay: Mechanically induced pain threshold in carrageenan rat model; type: in vivo; conditions: intrathecal, 5.0 mg/kg (FIG. 8); 15-120 min
Protocol: Male Wistar rats (each weighing between 200-250 g, kept under pathogen-free conditions at 24-25° C. and provided with standard rat chow and water ad libitum) were anaesthetized via intraperitoneal administration of pentobarbital (50 mg/kg) and placed in a stereotaxic frame. The atlanto-occipital membrane was exposed and a PE-10 catheter (7.5 cm) was inserted through an incision into the subarachnoidal space. The external end of the catheter was then fixed to the skull, the wound was closed, and the rats were allowed to recover for 7 days post-surgery. Animals without neurological deficits were placed in a plexiglass observation chamber on a metal mesh surface and mechanical thresholds of the plantar surface of the paw were determined using a Dynamic Plantar Aesthesiometer (Ugo Basile, Italy) as follows: Following acclimation, the touch stimulator unit was placed under the animal's paw such that the filament was positioned under the target area of the paw. The filament was then lifted such that it contacted the pad of the animal's paw and continually exerted an increasing upward force on the paw until the animal withdrew the paw. The paw withdrawal threshold was measured 5 times in this manner in turns and the mean of the 5 values was calculated. […] Three hours after the carrageenan administration, the threshold values were measured again.

[8] = test system: isolated perfused rat hearts; assay: Function recovery after global ischemia/reperfusion in isolated perfused rat hearts; conditions: 1 nM, infused 10 min before 30 min no-flow ischemia, 40 min reperfusion
Protocol: Male Sprague-Dawley rats (having a body weight of 250 to 300 g) were heparinized using sodium heparin (1,000 U/kg i.p.), followed 10 minutes later by introduction of anesthesia via intraperitoneal administration of sodium pentobarbital (40 mg/kg). Once the animal was anesthetized, the thorax was opened, and the heart was rapidly removed and perfused through the ascending aorta using Krebs-Ringer buffer consisting of NaCl (118 mmol/liter), KCl (4.75 mmol/liter), KH2PO4 (1.18 mmol/liter), MgSO4 (1.18 mmol/liter), CaCl2 (2.5 mmol/liter), NaHCO3 (25 mmol/liter), and glucose (11 mmol/liter). A mixture of 95% O2 and 5% CO2 at 37° C. was bubbled through the perfusate. The heart was initially perfused at a constant pressure of 70 mm Hg. About 10 min after the constant pressure perfusion, perfusion was switched to constant flow perfusion achieved using a microtube pump. The perfusion pressure was maintained at the same level of constant pressure perfusion by adjusting flow rate. Once the flow rate was determined, it was maintained throughout the experiment. The hearts were stimulated by rectangular pulses at a rate of 5 Hz and 2-millisecond duration and twice the diastolic threshold, delivered from a stimulus isolation unit (ADInstruments Ltd, Australia). Rat hearts were initially perfused at a constant pressure of 70 mm Hg using the procedure described above in section 6.12.1. […]

BALB/C mice = assay: Allodynia in streptozotocin model of diabetic neuropathy; type: in vivo, mouse; conditions: 1 mg/kg; 15, 30, 60 min after administration
Protocol: BALB/C mice (6-8 weeks of age) were intraperitoneally administered streptozotocin (40 mg/kg, once per day for 5 consecutive days) to induce diabetes (blood glucose levels were greater than […]).

male mice [9] = assay: Formalin pain model; type: in vivo, mouse; conditions: 1.0 mg/kg i.p.
Protocol: Male mice (each having a body weight of 20-30 g) were subcutaneously administered 20 μl of a 1% formalin solution in formaldehyde (prepared by diluting a commercial 4% [w/v] stock formalin solution) into the dorsal region of their left hind paw. […] Both groups of animals were monitored for a reaction for 30 minutes post-treatment to determine how much time each animal spends licking the treated paw. The licking time in control group (vehicle pretreated animals) was then compared to the licking time in the treatment group in order to calculate the analgesic effect. The 30 minute reaction period was divided into two phases: an early phase which lasts from 0-5 minutes post-treatment, and a late phase which lasts from 10-30 minutes post-treatment.

male CD rats = assay: Sciatic nerve ligation allodynia, Von Frey Hair test; type: in vivo, rat
Protocol: The rats were then anesthetized via intraperitoneal administration of sodium pentobarbital (50 mg/kg). A skin incision was made at the upper ⅓ and ⅔ left thigh area of each rat and the left sciatic nerve was exposed and freed from the surrounding connective tissue. An 8-0 nylon suture was then used to tightly ligate the left sciatic nerve of each rat so that the dorsal ⅓ to ½ of the nerve thickness was trapped in the ligature. The incision was closed using 4-0 sterile suture.

O=[N+]([O-])OC[C@H]1O[C@@H](n2cnc3c(NC4CCOC4)ncnc32)[C@H](O)[C@@H]1O (stereo partly drawn) [Compound 25]
selectivity for the adenosine A1 receptor [1]: selective for the adenosine A1 receptor | Ki [2]: > 100 µM | Ki [3]: 2.02 µM

O=[N+]([O-])OC[C@H]1O[C@@H](n2cnc3c(NC4CCCC4)nc(Cl)nc32)[C@H](O)[C@@H]1O [Compound 16]
Ki [2]: 4.19 µM

Nc1nc(Cl)nc2c1ncn2[C@@H]1O[C@H](CO[N+](=O)[O-])[C@@H](O)[C@H]1O [Compound 19]
Ki [1]: 0.007 µM | selectivity for the adenosine A1 receptor [1]: selective for the adenosine A1 receptor | Ki [2]: 10 µM | Ki [3]: 0.9 µM

O=[N+]([O-])OC[C@H]1O[C@@H](n2cnc3c(NC4CCCC4)ncnc32)[C@H](O)[C@@H]1O [Compound 17]
lipopolysaccharide-induced mortality (male BALB/c mice [4]): reduces | lipopolysaccharide-induced plasma MIP-1α production (male BALB/c mice [5]): reduces | lipopolysaccharide-induced plasma TNF-α production (male BALB/c mice [5]): reduces | analgesic effect, tail flick (% MPE) (male mice [6]): exerts a analgesic effect | heart rate (adult male Wistar rats; 10 ng/kg/minute i.v. for 20 minutes, lowered from 440 beats per minute): 370 beats per minute | heart rate (adult male Wistar rats; 1000 ng/kg/minute i.v. for 20 minutes, reduced from 440 beats per minute): 150 beats per minute | total duration of both VT and VF ([7]; 30 and 100 pM): significantly shortened | incidence of ventricular fibrillation (VF) ([7]; treated hearts (2/22), 10, 30 and 100 pM, non-treated 58% (7/12)): 9% | incidence of ventricular tachycardia (VT) ([7]; treated hearts, 10, 30 and 100 pM, non-treated 12/12): 20/22 | paw withdrawal (pain) threshold (male Wistar rats): effective for raising the pain threshold | +dp/dtmax (maximal rate of development of left ventricular pressure) [8]: significantly improved | analgesic effect on allodynia (BALB/C mice): marked and lasting analgesic effect | Ki [2]: 4.69 µM | analgesic effect, paw licking time, late phase (10-30 min) (male mice [9]): exhibits an analgesic effect during the late phase | response in first phase of formalin test (male mice [9]; early phase 0-5 min): no response | Ki [3]: 0.704 µM | analgesic effect on allodynia, alone (male CD rats; 0.1 mg/kg alone): exerts an analgesic effect | analgesic effect on allodynia, in combination with buprenorphine (male CD rats; 0.1 mg/kg co-administered with buprenorphine 0.3 mg/kg): exerts an analgesic effect

Nc1ncnc2c1ncn2[C@@H]1O[C@H](CO[N+](=O)[O-])[C@@H](O)[C@H]1O [Compound 18]
Ki [1]: 0.00579 µM | selectivity for the adenosine A1 receptor [1]: selective for the adenosine A1 receptor | Ki [2]: 0.951 µM | Ki [3]: 0.216 µM
